Laboratory results from patent publication US6894075B2, “4′-demethyl-4′-O-substituted-1-deoxypodophyllotoxin derivative and geometric isomer thereof, process for the preparation thereof and anti-cancer composition comprising the same” (priority 2000, dated 2005).
Values joined by “and” are separate entries in the source; they are usually repeats but may differ in a detail not shown here. Identical values can stand only once. Like-named read-outs stand apart in the source and are kept apart here.

How the values were obtained:
[1] = test system: Lewis Lung Cancer Cell (LLC); assay: Anti-cancer test for BDF1 mouse transplanted by Lewis Lung Cancer Cell, Experiment 2-1 (formulae 1a, 1b); type: in vivo; conditions: peritoneal injection 0.06 mmole/kg/day at days 1, 2, 4, 7, 8 (etoposide 36 mg/kg), cancer volume at 14 to 16 days
Description: In order to evaluate the anti-cancer activity of the compounds of the present invention, LLC, which is a lung cancer cell of mouse, was transplanted into the hypodermic region of BDF1 mouse to induce a solid cancer. […] Experiment for the compounds of formulae (1a) and (1b) and that for the compound of formula (1c) were separately carried out.
Male BDF1 mouse (Weight 18 to 25 g), being in good health and purchased from Korea Biolink Co., was used as a test animal.
The mice were bred at a place controlled to the temperature of 23 to 24° C. while provided with water and feed ad libitum. As the feed, feed for mouse containing no antibiotics was used. The hypodermic tissue of C57BL/6 mouse, which includes cells cultured therein for 14 days, was taken up. Sterilized cold physiological saline was added to the tissue in the amount of 5 ml/g tissue to make a cell suspension. This cell suspension of 0.2 ml was transplanted into the hypodermic region of armpit of BDF1 mouse.
(§1) Each group includes 5 mice. After 24 hours from the transplantation, each test compound of formulae (1a) and (1b) was dissolved in 4% Tween 80 and injected peritoneally in the amount of 0.2 ml and in a concentration of 0.06 mmole/kg/day (that is, 0.06 mmole of each test compound was dissolved in 10 ml of 4% Tween 80, and then 0.2 ml of the resulting solution was peritoneally injected into a mouse). Only 4% Tween 80 was injected for the negative control group, and the same moles of etoposide (36 mg/kg) was injected for the positive control group. The injection was performed five times at 1, 2, 4, 7 and 8 days from the transplantation of cancer.
The anti-cancer effect was determined by measuring the volume of cancer of the control and test groups at 14 to 16 days from the administration of drugs and then calculated as follows. Volume of Cancer(mm^3)=Length(mm)×Width^2(mm^2)/2 Suppression Rate of Cancer Growth(%)=(C−T)×100(%)/C in which • C represents the average volume of cancer (mm^3) of the control group, and • T represents the average volume of cancer (mm^3) of the test group.

A549 cell = assay: Cytotoxicity test (SRB method) for A549 cells; type: cell-based, human; conditions: for EC50: read-out: ED50(nM) for A549
Summary of the method: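 SRB assay: cells seeded 24 h at 37 °C, then exposed 48 h to samples at 0.1, 0.03, 0.01 and 0.003 mg/ml final. TCA-fixed, SRB-stained, OD read at 520 nm. Growth is calculated against time-zero and untreated controls, and ED50 is the concentration giving 50% growth inhibition, obtained by regression.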

[2] = Weight change in the period of drug administration; type: in vivo, mouse; conditions: for Weight of mouse, Day 1: Day 1 from the cancer cell transplantation; for Weight of mouse, Day 2: Day 2 from the cancer cell transplantation; for Weight of mouse, Day 3: Day 3 from the cancer cell transplantation; for Weight of mouse, Day 4: Day 4 from the cancer cell transplantation; for Weight of mouse, Day 5: Day 5 from the cancer cell transplantation; for Weight of mouse, Day 6: Day 6 from the cancer cell transplantation; for Weight of mouse, Day 7: Day 7 from the cancer cell transplantation; for Weight of mouse, Day 8: Day 8 from the cancer cell transplantation
Protocol: as §1
As an index of toxicity, the weight change during the period of drug administration was recorded for the compounds of formulae (1a) and (1b) compared with the comparison compound of Etoposide.

[3] = test system: mouse leukemia cell line L1210; conditions: L1210 transplanted into CDF1 mouse, compared with the negative control (Terada et al. 1992); cited from earlier work
[4] = A549 human lung cancer cell, SRB, 48 hours incubation

Row | Compound | Suppression Rate for LLC [1] | cytotoxicity compared with DPT (A549 cell; A549, in words) | EC50 (A549 cell; [4]) [nM] | Weight of mouse, Day 1 [2] [g] | Weight of mouse, Day 2 [2] [g] | Weight of mouse, Day 3 [2] [g] | Weight of mouse, Day 4 [2] [g] | Weight of mouse, Day 5 [2] [g] | Weight of mouse, Day 6 [2] [g] | Weight of mouse, Day 7 [2] [g] | Weight of mouse, Day 8 [2] [g] | extension effect of life span [3] | EC50 (A549 cell; Homo sapiens, A549, 48 h) [nM] | ED50(mg/mL) for A549 (A549 cell; A549, SRB, 48 hours incubation, Table 2) [mg/mL]
1 | COc1cc(C2c3cc4c(cc3CC3COC(=O)C32)OCO4)cc(OC)c1OC(=O)NCCO (stereo not drawn) [Compound 1b-5, 4′-demethyl-4′-O-(2-hydroxyethyl)carbamoyl-1-deoxypodophyllotoxin] | 95.1% | stronger cytotoxicity than DPT | 61.5 | 23.4 | 23.8 | 22.2 | 23.8 | 23.4 | 23.8 | 23 | 23.2 |  |  | 
2 | COc1cc([C@@H]2c3cc4c(cc3C[C@H]3COC(=O)[C@@H]32)OCO4)cc(OC)c1OC [DPT, Deoxypodophyllotoxin] | 60% and 60.2% |  |  | 23.1 | 23.9 | 24 | 24 | 24.4 | 25 | 25 | 24.9 | about 12% | 75.5 | 
3 | COc1cc([C@@H]2c3cc4c(cc3[C@@H](O[C@@H]3O[C@@H]5CO[C@@H](C)O[C@H]5[C@H](O)[C@H]3O)[C@H]3COC(=O)[C@H]23)OCO4)cc(OC)c1O [Etoposide, reference compound] | 90% and 90.8% |  | 1990 | 23 | 24 | 25.1 | 26 | 25.9 | 26.3 | 25.6 | 26.6 |  |  | 1.102
